These results are taken from patent publication US20070015937A1, “PROCESS FOR RECOVERY OF FLUORINATED CARBOXYLIC ACID SURFACTANTS FROM EXHAUST GAS” (priority 2005, published 2007).

Marks after values point to notes of the source that are not given here.

The series in a line: Determination of bio-accumulation: urinary clearance pharmacokinetic study in rats. The settings on record: oral gavage; for Compound-related Effects: clinical signs of toxicity and gross necropsy at 96 hours post-dose.
The mark [1] stands for this setting: recovery of administered amount in urine after 96 h, 73 micro Moles per kg body weight, N=3.
Where [2] appears, read: renal half-life, 73 micro Moles per kg body weight, N=3, urine by fluorine NMR, exponential least squares curve fitting.
Setting [3] is: no parent compound observed in the urine, based on elimination of the major metabolite C3F7—O—CHFCOO−, 73 micro Moles per kg.

As to `N.O=C(O)C(F)(F)OC(F)(F)C(F)(F)C(F)(F)OC(F)(F)F` [Compound 1, CF3—O—(CF2)3—O—CF2—COONH4], under setting [1], the “% Recovery (96 h)” value was found to be 73%.
For the compound `N.O=C(O)C(F)(F)OC(F)(F)OC(F)(F)F` [Compound 2, CF3—OCF2—O—CF2—COONH4], the “% Recovery (96 h)” value under setting [1] is listed as 96%. In addition, the “T½” value under setting [2] was 12 h.
`N.O=C(O)C(F)(F)OC(F)(F)OC(F)(F)OC(F)(F)F` [Compound 3, CF3—OCF2—OCF2—OCF2—COONH4]: under setting [1], the “% Recovery (96 h)” value is on record as 100%. For the same compound, the “T½” value under setting [2] turned out to be 12 h.
As for `N.O=C(O)C(F)(F)OC(F)(F)C(F)(F)C(F)(F)OC(F)(F)F` [Compound 4, CF3—(OCF2)3—OCF2—COONH4], under setting [1], the “% Recovery (96 h)” value was determined as 50%.
As for `N.O=C(O)C(F)(F)OC(F)(F)C(F)(F)C(F)(F)F` [Compound 5, C3F7—O—CF2—COONH4], the “% Recovery (96 h)” value under setting [1] was 97%. The “T½” value under setting [2] worked out at 11 h.
For `N.O=C(O)C(F)(F)C(F)(F)OC(F)(F)F` [Compound 6, CF3—O—CF2—CF2—COONH4], under setting [1], the “% Recovery (96 h)” value came to 100%. In addition, the “T½” value under setting [2] came out at 11 h.
`N.O=C(O)C(F)(F)C(F)(F)OC(F)(F)C(F)(F)F` [Compound 7, C2F5—O—CF2—CF2—COONH4]: the “% Recovery (96 h)” value under setting [1] is reported as 100%. The “T½” value under setting [2] was determined as 10 h.
The corresponding values for `N.O=C(O)C(F)(F)C(F)(F)OC(F)(F)C(F)(F)C(F)(F)F` [Compound 8, C3F7—O—CF2—CF2—COONH4] are 82% and 12 h.
Consider `N.O=C(O)C(F)(F)C(F)(F)OC(F)(F)C(F)(F)C(F)(F)C(F)(F)F` [Compound 9, C4F9—O—CF2—CF2—COONH4], for which the “Compound-related Effects” value (73 micro Moles per kg) is “Hepatomegaly”. For the same compound, the “% Recovery (96 h)” value under setting [1] is listed as 42%. Also, the “T½” value under setting [2] worked out at 31 h.
For `N.O=C(O)C(F)(F)OC(F)(F)C(F)(F)OC(F)(F)C(F)(F)F` [Compound 10, C2F5—O—CF2—CF2—O—CF2—COONH4], the “% Recovery (96 h)” value under setting [1] turned out to be 99%. Moreover, the “T½” value under setting [2] is listed as 10 h.
Take `N.O=C(O)C(F)(F)C(F)OC(F)(F)C(F)(F)C(F)(F)OC(F)(F)F` (centres unmarked) [Compound 11, CF3—O—CF2—CF2—CF2—O—CHF—CF2—COONH4]: under setting [1], the “% Recovery (96 h)” value amounted to 84%. Besides, under setting [2], the “T½” value is listed as 12 h.
As to `N.O=C(O)C(F)OC(F)(F)C(F)(F)C(F)(F)OC(F)(F)F` (centres unmarked) [Compound 12, CF3—O—CF2—CF2—CF2—O—CHF—COONH4], under setting [1], the “% Recovery (96 h)” value is 95%. Further, under setting [2], the “T½” value stood at 11 h.
`N.O=C(O)C(F)(F)C(F)OC(F)(F)C(F)(F)C(F)(F)F` (centres unmarked) [Compound 13, C3F7—O—CFH—CF2COONH4]: the “% Recovery (96 h)” value under setting [1] was 94%. In addition, under setting [2], the “T½” value was found to be 11 h.
For the compound `N.O=C(O)C(F)(F)C(F)(F)C(F)(F)C(F)(F)C(F)(F)OC(F)C(F)(F)F` (centres unmarked) [Compound 14, CF3—CFH—O—(CF2)5—COONH4], the “Compound-related Effects” value (73 micro Moles per kg) is given as “Hepatomegaly”. For the same compound, under setting [1], the “% Recovery (96 h)” value amounted to 32%. Further, the “T½” value under setting [2] was 24 h.
`N.O=C(O)C(F)(F)C(F)(F)C(F)(F)OC(F)C(F)(F)F` (centres unmarked) [Compound 15, CF3—CFH—O—(CF2)3—COONH4]: the “% Recovery (96 h)” value under setting [1] was 95%. The “T½” value under setting [2] is on record as 8 h.
Turning to `N.O=C(O)COC(F)(F)C(F)OC(F)(F)C(F)(F)C(F)(F)F` (centres unmarked) [Compound 16, C3F7—O—CFH—CF2—O—CH2—COONH4], under setting [3], the “% Recovery (96 h)” value is on record as 65* % and the “T½ (h)” value was 13* h.
For `N.O=C(O)C(F)(F)C(F)(F)C(F)(F)C(F)(F)C(F)(F)C(F)(F)C(F)(F)F` [Compound C-1, C7F15COONH4, reference compound], the “Compound-related Effects” value (73 micro Moles per kg) is recorded as “Hepatomegaly”. For the same compound, the “% Recovery (96 h)” value under setting [1] is 6%. Further, the “T½ (h)” value under setting [2] is “˜550 h”.
On to “CF3CF2CF2OCF(CF3)CF2OCF2COONH4 [Compound C-3, reference compound]”, for which the “Compound-related Effects” value (73 micro Moles per kg) is given as “Hepatomegaly”. Also, the “% Recovery (96 h)” value under setting [1] was found to be 5%. Besides, the “T½” value under setting [2] is 95 h.
